Reference: PMC4186430, “Modeling of age-dependent amyloid accumulation and γ-secretase inhibition of soluble and insoluble Aβ in a transgenic mouse model of amyloid deposition” (Pharmacology Research & Perspectives, 2013)
Marks after values point to notes of the source that are not given here.

Experiments:
[1] = Population pharmacokinetic modeling of MRK-560 plasma and brain exposure in mice; type: in vivo, C57BL/6, Tg2576 and Tg2576 wild-type littermate mice
Excerpt: (§1) C57BL/6 female mice (Harlan Laboratories, Horst, The Netherlands), Tg2576 transgenic female mice (Taconics, Georgetown, NY), overexpressing human APP with the Swedish mutation (Hsiao et al. [1996]), and Tg2576 wild-type littermates were used in the experiments. The C57BL/6 and wild-type littermates were only used for pharmacokinetic PK sampling and analysis. The housing environment was humidity- and temperature-controlled with a constant 12-h light/dark cycle. The animals were kept in conventional housing (5–10 mice per cage) and had access to standard rodent chow and tap water ad libitum. The transgenic mice were aged at the local AstraZeneca (AZ) animal facilities. On the day of study, the mice were weighed. MRK-560 (synthesized in-house; AZ) or vehicle was administered by oral gavage. Three types of vehicles were used: (1) 1% MCC/NaCMC (Microcrystalline Cellulose/Sodiumcarboxymethyl Cellulose) +0.6% lipoid S100, (2) 20% HPβCD in 0.1 mol/L Meglumine, and (3) 40% HPβCD in 0.3 mol/L Meglumine. Observations of the animals’ health were made throughout all the experiments. Data from 23 MRK-560 studies were used in this analysis and details of all studies can be found in Table 1. For the AP analysis, data from vehicle and untreated Tg2576 mice from 48 additional (i.e., non-MRK-560) in-house studies were used. The additional dataset consisted of Aβ levels measured in Tg2576 mice of various ages, between 3.5 and 26 months at termination. Details of those data can be found in Appelkvist et al. ([2011]). In total, data from 71 preclinical studies were used.
Blood samples were collected by tail vein puncture in PK studies and occasionally in efficacy studies. At termination blood was withdrawn from anesthetized mice by heart puncture into prechilled microtainer Ethylenediaminetetraacetic acid tubes. Blood samples were immediately put on ice and centrifuged for 10 min at ∼3000g at +4°C within 20 min from sampling. Plasma was transferred to prechilled polypropylene tubes. The tubes were immediately frozen on dry ice and stored at −70°C until analysis.
Plasma samples and standards were precipitated with acetonitrile containing internal standard. After centrifugation, supernatant was transferred to a new 96-well plate, diluted with mobile phase, and injected on the LC/MS/MS system (Waters Corporation, Sollentuna, Sweden) (Bueters et al. [2011]). For the determination of the compound concentration in the brain, frozen mouse brains were weighed, and an ice-cold Ringer solution (two volumes per weight) was added. The brains were sonicated using a Multi-element probe SONICS VCX 500 (Newtown, CT). To 50 μL homogenized tissue 150 μL ice-cold acetonitrile containing an internal standard was added in a precipitation plate (96-well PP-plate; Waters, Milford, MA). After mixing and centrifugation (4°C, 4000 rpm, 20 min), supernatant was transferred to an analysis plate (PP-plate, Waters) and analyzed by LC/MS/MS (Borgegård et al. [2011]). As the brains were not perfused before exposure analysis, a volume of 1.3% of blood in the brain and the concentration of compound in plasma were used to calculate the brain concentration (Richard [1968]; Park and Sinko [2005]).
In the pharmacokinetic analysis, one- and two-compartmental first-order models were evaluated to fit the MRK-560 concentration–time profiles in plasma and brain. Separate absorption rate constants were estimated for oral and subcutaneous route of administration. A dose-dependent bioavailability was assessed and was modeled using the function shown in equation (1): [drawing 1] (1)
An instantaneous distribution of the unbound compound between plasma and brain was assumed. The brain exposure was modeled using equation (2): [drawing 2] (2) where CP was the plasma concentration, θ4 was the brain:plasma concentration ratio, and fu,pl and fu,br were the plasma and brain unbound fraction, respectively. […]

insoluble Aβ40 = experiment: Insoluble (FA) brain Aβ40 levels in Tg2576 mice after MRK-560, ELISA; type: in vivo, Tg2576 transgenic mice
Excerpt: as §1
After blood sampling, mice were sacrificed by decapitation followed by brain samples collection. Cerebellum and olfactory bulbs were removed and the forebrain was divided into left and right hemispheres, weighed, and snap frozen.
Left hemisphere of the cerebrum was sequentially extracted by diethylamine (DEA) followed by formic acid (FA) to obtain soluble and insoluble fractions of Aβ species, respectively. In short, brain tissue was sonicated in 1:18 (w/v) 0.2% DEA and 50 mmol/L NaCl, pH 11.6. After centrifugation (133,000g, 4°C, 1 h), the supernatant (soluble Aβ) was recovered, neutralized to a pH of 8.0 using 2 mol/L Tris-HCl, and immediately frozen to -70°C. The remaining pellet was sonicated in 1:18 (w/v) 70% FA. Homogenates were centrifuged at +4°C for 1 h at 133,000g. Recovered supernatants (insoluble Aβ) were neutralized to pH 7.5 with 1 mol/L Tris at 1:20 (w/v) dilutions, frozen on dry ice, and stored at −70°C until analysis.
Amyloid beta (Aβ40) and Aβ42 concentrations were measured in plasma, in soluble (DEA), and insoluble (FA) brain fractions using commercial sandwich ELISA kits (KHB3482 from Invitrogen, Carlsbad, CA, and RUO80177 from Innogenetics, Gent, Belgium). To compensate for matrix effects, plasma or brain homogenates from non-transgenic mice were used for preparation of standard curves. The lower and higher limits of quantification (LLOQ and HLOQ) were determined for each immunoassay plate based on the lowest and highest standard point, respectively. The coefficient of variation was less than20% and the accuracy was between 80% and 120%.
Statistical comparisons of the vehicle and MRK-560 treatment data were made by unpaired t-tests. The level of significance was set at P < 0.05. All analyses were performed using GraphPad Prism (GraphPad Prism Software Inc., San Diego, CA) and results were reported as mean ± SEM.

Structure (SMILES): O=S(=O)(NC1CCC(c2cc(F)ccc2F)(S(=O)(=O)c2ccc(Cl)cc2)CC1)C(F)(F)F (stereo not drawn) [MRK-560, N-[cis-4-[(4-chlorophenyl)-sulfonyl]-4-(2,5-difluorophenyl)cyclohexyl]-1,1,1-trifluoromethanesulfonamide]
- Brain:plasma ratio ([1]; estimated total brain:plasma ratio, constant over 0.01-15 μmol/L): 0.31
- Kp ([1]; female, C57BL/6, Tg2576, Tg2576 wild-type littermates, mouse, brain, estimated total brain:plasma ratio, constant over 0.01-15 μmol/L): 0.3
- clearance ([1]; female, C57BL/6, Tg2576, Tg2576 wild-type littermates, mouse, plasma, two-compartmental model): 2 mL/min/kg
- differences in pharmacokinetics among C57BL/6, Tg2576 and Tg2576 wild-type littermates ([1]; mouse, in vivo): No differences
- Q ([1]; two-compartmental model): 7.6 L/h/kg
- V2 ([1]; two-compartmental model): 0.28 L/kg
- V3 ([1]; two-compartmental model): 2.9 L/kg
- KA (oral) ([1]; two-compartmental model, absorption rate constant, oral): 0.41 h⁻¹
- KA (s.c.) ([1]; two-compartmental model, absorption rate constant, s.c.): 0.81 h⁻¹
- plasma exposure with vehicles 2 and 3 compared to vehicle 1 ([1]; vehicles 2, 3 = HPβCD/Meglumine, vehicle 1 = 1% MCC/NaCMC+0.6% lipoid S100): fourfold higher
- Effect on insoluble Aβ40 (insoluble Aβ40; study 8, Tg2576, 24 weeks at start, 0.5 μmol/kg p.o., 30 days, 3 h since last dosing): −8%
- Effect on insoluble Aβ40 (insoluble Aβ40; study 8, Tg2576, 24 weeks at start, 6 μmol/kg p.o., 30 days, 3 h since last dosing, P < 0.05): −57 ^* %
- Effect on insoluble Aβ40 (insoluble Aβ40; study 9, Tg2576, 24 weeks at start, 0.5 μmol/kg p.o., 94 days, 3 h since last dosing): 3%
- Effect on insoluble Aβ40 (insoluble Aβ40; study 9, Tg2576, 24 weeks at start, 6 μmol/kg p.o., 94 days, 3 h since last dosing): 32%
- Effect on insoluble Aβ40 (insoluble Aβ40; study 10, Tg2576, 24 weeks at start, 1 μmol/kg p.o., 29 days, 3 h since last dosing, P < 0.05): −40 ^* %
- Effect on insoluble Aβ40 (insoluble Aβ40; study 10, Tg2576, 24 weeks at start, 3 μmol/kg p.o., 29 days, 3 h since last dosing, P < 0.05): −42 ^* %
- Effect on insoluble Aβ40 (insoluble Aβ40; study 10, Tg2576, 24 weeks at start, 6 μmol/kg p.o., 29 days, 3 h since last dosing, P < 0.05): −69 ^* %
- Effect on insoluble Aβ40 (insoluble Aβ40; study 11, Tg2576, 24 weeks at start, 6 μmol/kg p.o., 30 days, 3 h since last dosing, P < 0.05): −31 ^* %
- Effect on insoluble Aβ40 (insoluble Aβ40; study 15, Tg2576, 36 weeks at start, 6 μmol/kg p.o., vehicle 3, 8 days, 3 h since last dosing): 2%
- Effect on insoluble Aβ40 (insoluble Aβ40; study 17, Tg2576, 68 weeks at start, 6 μmol/kg p.o., 4 days, 3 h since last dosing): −7.6%
- Effect on insoluble Aβ40 (insoluble Aβ40; study 20, Tg2576, 32 weeks at start, 30 μmol/kg p.o., 21 days, 4.5 h since last dosing): −70%
- Effect on insoluble Aβ40 (insoluble Aβ40; study 21, Tg2576, 36 weeks at start, 6 μmol/kg p.o., vehicle 3, 8 days, 3 h since last dosing): −30%
- Effect on insoluble Aβ40 (insoluble Aβ40; study 22, Tg2576, 24–28 weeks at start, 30 μmol/kg p.o., 45 days, 4.5 h since last dosing, P < 0.05): −57 ^* %
- Effect on insoluble Aβ40 (insoluble Aβ40; study 23, Tg2576, 37–40 weeks at start, 30 μmol/kg p.o., 28 days, 4.5 h since last dosing, P < 0.05): −67 ^* %
